Measurements reported in patent US10894782B2, “Modulators of P97 AAA ATPase activity” (University of Pittsburgh—Of the Commonwealth System of …, priority 2016, dated 2021).
pIC50: −log10 of the molar value. Like-named read-outs stand apart in the source and are kept apart here.

Molecular target: P97 (Homo sapiens (Human), UniProt P55072)
Test: P97 Biomolgreen ATPase assay, 200 μM ATP
Format: biochemical
Settings: for IC50: P97 Biomolgreen, IC50 (μM); for pIC50: read-out: P97 Biomolgreen, IC50

Chain of P97 (P55072 whole entry): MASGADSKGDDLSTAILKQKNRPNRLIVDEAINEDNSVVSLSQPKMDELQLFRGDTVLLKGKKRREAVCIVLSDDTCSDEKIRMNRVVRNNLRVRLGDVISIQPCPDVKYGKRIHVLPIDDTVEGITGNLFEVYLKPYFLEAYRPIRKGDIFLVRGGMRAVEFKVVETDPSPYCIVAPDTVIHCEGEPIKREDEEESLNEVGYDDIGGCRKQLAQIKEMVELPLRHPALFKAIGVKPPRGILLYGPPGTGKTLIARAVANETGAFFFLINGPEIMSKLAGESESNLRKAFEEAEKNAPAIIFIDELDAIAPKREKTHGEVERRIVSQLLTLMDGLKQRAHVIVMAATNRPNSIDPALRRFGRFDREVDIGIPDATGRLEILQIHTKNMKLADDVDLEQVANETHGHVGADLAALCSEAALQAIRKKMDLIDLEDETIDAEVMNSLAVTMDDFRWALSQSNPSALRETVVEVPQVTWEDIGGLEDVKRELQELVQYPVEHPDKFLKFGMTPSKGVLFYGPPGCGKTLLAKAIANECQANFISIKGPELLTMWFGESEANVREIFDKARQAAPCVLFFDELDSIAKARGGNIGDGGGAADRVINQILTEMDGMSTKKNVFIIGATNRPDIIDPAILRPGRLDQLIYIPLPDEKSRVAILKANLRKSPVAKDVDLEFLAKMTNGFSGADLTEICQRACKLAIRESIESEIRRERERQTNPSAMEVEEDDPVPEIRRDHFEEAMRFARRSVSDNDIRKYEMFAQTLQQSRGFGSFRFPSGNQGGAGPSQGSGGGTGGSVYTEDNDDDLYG

SMILES | pIC50 | also measured
[2H]C1([2H])C([2H])([2H])C([2H])([2H])C([2H])(Sc2nnc(COc3ccc(C#CCOC(=O)NC4CCN(C)CC4)c(F)c3)n2-c2cccnc2)C1([2H])[2H] [Compound 126] | – | IC50: 0.016 µM
C#Cc1ccc(OCc2nnc(SC3C=CCCC3)n2-c2cccnc2)cc1C (stereo not drawn) [Compound 127] | 7.42 | –
CCC(=O)NCC#Cc1ccc(OCc2nnc(SCC3CO3)n2-c2cccnc2)cc1C (stereo not drawn) [Compound 129] | – | P97 Biomolgreen; 200 μM ATP; IC50 (μM): not active
CCC(=O)NCC#Cc1ccc(OCc2nnc(SC[C@@]3(C)CO3)n2-c2cccnc2)cc1C [Compound 130] | – | P97 Biomolgreen; 200 μM ATP; IC50 (μM): not active
[2H]C1([2H])C([2H])([2H])C([2H])([2H])C([2H])(Sc2nnc(COc3ccc(C#CCOC(=O)OCC#Cc4ccc(OCc5nnc(SC6([2H])C([2H])([2H])C([2H])([2H])C([2H])([2H])C6([2H])[2H])n5-c5cccnc5)cc4C)c(C)c3)n2-c2cccnc2)C1([2H])[2H] [Compound 133] | – | IC50: 0.91 µM
Cc1cc(OCc2nnc(SC3C=CCCC3)n2-c2cccnc2)ccc1C#CCNC(=O)NCC#Cc1ccc(OCc2nnc(SC3C=CCCC3)n2-c2cccnc2)cc1C (stereo not drawn) [Compound 134] | 6.60 | –

More lines, main results first:

pIC50 | SMILES | also measured
6.89 | Cc1cc(OCc2nnc(SCC3CC3)n2-c2cccnc2)ccc1C#CCO [Compound 128] | –
6.48 | C=CCSc1nnc(COc2ccc(C#CCNC(=O)CC)c(C)c2)n1-c1cccnc1 [Compound 131] | –
5.56 | CCC(=O)NCC#Cc1ccc(OCc2nnc(SCC(=O)CCl)n2-c2cccnc2)cc1C [Compound 132] | –
